Source: patent US12588678B2, “Oxazoline compound, synthesis method therefor and application thereof” (NANKAI UNIVERSITY, priority 2019, dated 2026)
Where “and” joins values, the source holds several entries; their conditions need not be identical. Identical values can stand only once.

Tests used:
[1] = test system: Tetranychus cinnabarinus mite larvae; experiment: Larvicidal activity test, dipping method on bean seedling leaves; assay type: in vivo; settings: for mortality at 0.1 µg/mL / mortality at 1 µg/mL / mortality at 10 µg/mL / mortality at 100 µg/mL / mortality at 200 µg/mL / mortality at 0.01 µg/mL / mortality at 0.05 µg/mL / mortality at 0.5 µg/mL: Tetranychus cinnabarinus, 96 h; for mortality at 0.1 µg/mL: read-out: mortality of mite larvae (%), 0.1 mg/L; for mortality at 1 µg/mL: read-out: mortality of mite larvae (%), 1 mg/L; for mortality at 10 µg/mL: read-out: mortality of mite larvae (%), 10 mg/L; for mortality at 100 µg/mL: read-out: mortality of mite larvae (%), 100 mg/L; for mortality at 200 µg/mL: read-out: mortality of mite larvae (%), 200 mg/L; for mortality at 0.01 µg/mL: read-out: mortality of mite larvae (%), 0.01 mg/L; for mortality at 0.05 µg/mL: read-out: mortality of mite larvae (%), 0.05 mg/L; for mortality at 0.5 µg/mL: read-out: mortality of mite larvae (%), 0.5 mg/L
Procedure, shortened: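 Leaves bearing mite larvae, hatched from eggs laid over 24 h and grown 5 days at 25° C (≥60 mites per leaf), were dipped 5–6 s in compound solution with Tween. Mortality was scored after 4 days of culture against an additive-only blank. Three replicates per compound.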

[2] = test system: Tetranychus cinnabarinus mite eggs; experiment: Activity against mite eggs, dipping method on bean seedling leaves; assay type: in vivo; settings: for mortality at 1 µg/mL: read-out: mortality of mite eggs (%), 1 mg/L; for mortality at 10 µg/mL: read-out: mortality of mite eggs (%), 10 mg/L; for mortality at 100 µg/mL: read-out: mortality of mite eggs (%), 100 mg/L; for mortality at 200 µg/mL: read-out: mortality of mite eggs (%), 200 mg/L; for mortality at 0.5 µg/mL: read-out: mortality of mite eggs (%), 0.5 mg/L
Procedure, shortened: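 Female T. cinnabarinus laid eggs on bean seedling leaves for 24 h at 25° C., adults removed; after 1 day, egg-bearing leaves dipped 5-6 s in test solution. Mortality of eggs scored after 4 further days of greenhouse culture, versus additive-only blank; three replicates per compound.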

[3] = Tetranychus cinnabarinus, 96 h, checked after 4 days

O=S(=O)(Oc1ccc(C2COC(c3c(F)cccc3F)=N2)cc1)c1ccc(C(F)(F)F)cc1 (stereo not drawn) [Compound R3-13] showed a mortality at 0.1 µg/mL ([1]; checked after 4 days) of 60%, a mortality at 1 µg/mL ([1]; checked after 4 days) of 80% and a mortality at 10 µg/mL ([1]; checked after 4 days) of 95%. The mortality at 100 µg/mL ([1]; checked after 4 days) was 100%, the mortality at 200 µg/mL ([1]; checked after 4 days) was 100% and the mortality at 1 µg/mL [2, 3] was 70%. The mortality at 10 µg/mL [2, 3] was 90%, the mortality at 100 µg/mL [2, 3] was 100% and the mortality at 200 µg/mL [2, 3] was 100%.
O=S(=O)(Oc1ccc(C2COC(c3c(F)cccc3F)=N2)cc1)c1ccc(F)cc1F (stereo not drawn) [Compound R3-14] showed a mortality at 0.1 µg/mL ([1]; checked after 4 days) of 60%, a mortality at 1 µg/mL ([1]; checked after 4 days) of 80% and a mortality at 10 µg/mL ([1]; checked after 4 days) of 95%. For the same molecule, the mortality at 100 µg/mL ([1]; checked after 4 days) was 100%, the mortality at 200 µg/mL ([1]; checked after 4 days) was 100% and the mortality at 1 µg/mL [2, 3] was 50%. It also gave a mortality at 10 µg/mL [2, 3] of 85%, a mortality at 100 µg/mL [2, 3] of 90% and a mortality at 200 µg/mL [2, 3] of 100%.
For O=S(=O)(Oc1ccc(C2COC(c3c(F)cccc3F)=N2)cc1)c1ccc(F)c(F)c1F (stereo not drawn) [Compound R3-15], the mortality at 0.1 µg/mL ([1]; checked after 4 days) was 65%, the mortality at 1 µg/mL ([1]; checked after 4 days) was 90% and the mortality at 10 µg/mL ([1]; checked after 4 days) was 100%. The mortality at 100 µg/mL ([1]; checked after 4 days) was 100%, the mortality at 200 µg/mL ([1]; checked after 4 days) was 100% and the mortality at 1 µg/mL [2, 3] was 65%. The mortality at 10 µg/mL [2, 3] was 95%, the mortality at 100 µg/mL [2, 3] was 100% and the mortality at 200 µg/mL [2, 3] was 100%.
Cc1ccc(S(=O)(=O)Oc2ccc(C3COC(c4c(F)cccc4F)=N3)cc2)cc1 (stereo not drawn) [Compound R3-16] showed a mortality at 1 µg/mL ([1]; checked after 4 days) of 70%, a mortality at 10 µg/mL ([1]; checked after 4 days) of 85% and a mortality at 100 µg/mL ([1]; checked after 4 days) of 100%. For the same molecule, the mortality at 200 µg/mL ([1]; checked after 4 days) was 100%, the mortality at 1 µg/mL [2, 3] was 50% and the mortality at 10 µg/mL [2, 3] was 70%. For the same molecule, the mortality at 100 µg/mL [2, 3] was 92% and the mortality at 200 µg/mL [2, 3] was 100%.
In the case of CC(C)(C)c1ccc(S(=O)(=O)Oc2ccc(C3COC(c4c(F)cccc4F)=N3)cc2)cc1 (stereo not drawn) [Compound R3-17], the “acaricidal activity compared with etoxazole” value ([1]; Tetranychus cinnabarinus eggs and larvae, etoxazole as reference) is reported as “equivalent or better acaricidal activity compared with etoxazole”, the mortality at 0.01 µg/mL ([1]; checked after 4 days) is reported as 35% and the mortality at 0.05 µg/mL ([1]; checked after 4 days) is reported as 50%. The mortality at 0.1 µg/mL ([1]; checked after 4 days) was 85%, the mortality at 0.5 µg/mL ([1]; checked after 4 days) was 90% and the mortality at 1 µg/mL ([1]; checked after 4 days) was 95%. For the same molecule, the mortality at 10 µg/mL ([1]; checked after 4 days) was 100%, the mortality at 100 µg/mL ([1]; checked after 4 days) was 100% and the mortality at 200 µg/mL ([1]; checked after 4 days) was 100%. The mortality at 0.1 µg/mL ([2]; Tetranychus cinnabarinus, 96 h, read-out: mortality of mite eggs (%), 0.1 mg/L, checked after 4 days) was 45%, the mortality at 0.5 µg/mL [2, 3] was 78% and the mortality at 1 µg/mL [2, 3] was 90%. For the same molecule, the mortality at 10 µg/mL [2, 3] was 96%, the mortality at 100 µg/mL [2, 3] was 100% and the mortality at 200 µg/mL [2, 3] was 100%.
Molecule O=S(=O)(Oc1ccc(C2COC(c3c(F)cccc3F)=N2)cc1)c1ccc2c(c1)OCCO2 (stereo not drawn) [Compound R3-18] has a mortality at 1 µg/mL ([1]; checked after 4 days) of 50%, a mortality at 10 µg/mL ([1]; checked after 4 days) of 70% and a mortality at 100 µg/mL ([1]; checked after 4 days) of 90%. It also gave a mortality at 200 µg/mL ([1]; checked after 4 days) of 100%, a mortality at 10 µg/mL [2, 3] of 50% and a mortality at 100 µg/mL [2, 3] of 70%. For the same molecule, the mortality at 200 µg/mL [2, 3] was 100%.
O=S(=O)(Oc1ccc(C2COC(c3c(F)cccc3F)=N2)cc1)c1cccc2ccccc12 (stereo not drawn) [Compound R3-20] gave a mortality at 1 µg/mL ([1]; checked after 4 days) of 55%, a mortality at 10 µg/mL ([1]; checked after 4 days) of 80% and a mortality at 100 µg/mL ([1]; checked after 4 days) of 90%. The mortality at 200 µg/mL ([1]; checked after 4 days) was 100%, the mortality at 1 µg/mL [2, 3] was 30% and the mortality at 10 µg/mL [2, 3] was 70%. It also gave a mortality at 100 µg/mL [2, 3] of 80% and a mortality at 200 µg/mL [2, 3] of 100%.
For O=S(=O)(Oc1ccc(C2COC(c3c(F)cccc3F)=N2)cc1)c1ccc2ccccc2c1 (stereo not drawn) [Compound R3-21], the mortality at 0.1 µg/mL ([1]; checked after 4 days) was 65%, the mortality at 1 µg/mL ([1]; checked after 4 days) was 95% and the mortality at 10 µg/mL ([1]; checked after 4 days) was 100%. For the same molecule, the mortality at 100 µg/mL ([1]; checked after 4 days) was 100%, the mortality at 200 µg/mL ([1]; checked after 4 days) was 100% and the mortality at 1 µg/mL [2, 3] was 65%. For the same molecule, the mortality at 10 µg/mL [2, 3] was 90%, the mortality at 100 µg/mL [2, 3] was 95% and the mortality at 200 µg/mL [2, 3] was 100%.
N#Cc1ccc(S(=O)(=O)Oc2ccc(C3COC(c4c(F)cccc4F)=N3)cc2)cc1 (stereo not drawn) [Compound R3-22] was tested, and the mortality at 1 µg/mL ([1]; checked after 4 days) was 40%, the mortality at 10 µg/mL ([1]; checked after 4 days) was 70% and the mortality at 100 µg/mL ([1]; checked after 4 days) was 95%. It also gave a mortality at 200 µg/mL ([1]; checked after 4 days) of 100%, a mortality at 1 µg/mL [2, 3] of 45% and a mortality at 10 µg/mL [2, 3] of 70%. The mortality at 100 µg/mL [2, 3] was 90% and the mortality at 200 µg/mL [2, 3] was 100%.
In the case of CCOc1cc(C(C)(C)C)ccc1C1COC(c2c(F)cccc2F)=N1 (stereo not drawn) [Etoxazole, reference compound], the “mortality of mite larvae (%)” value ([1]; 10 mg/L, checked after 4 days) is reported as 100%, the mortality at 0.01 µg/mL ([1]; checked after 4 days) is reported as 30% and the mortality at 0.05 µg/mL ([1]; checked after 4 days) is reported as 30%. It also gave a mortality at 0.1 µg/mL ([1]; checked after 4 days) of 65%, a mortality at 0.5 µg/mL ([1]; checked after 4 days) of 80% and a mortality at 1 µg/mL ([1]; checked after 4 days) of 80%. For the same molecule, the mortality at 10 µg/mL ([1]; checked after 4 days) was 90%, the mortality at 100 µg/mL ([1]; checked after 4 days) was 100% and the mortality at 200 µg/mL ([1]; checked after 4 days) was 100%. For the same molecule, the “mortality of mite eggs (%)” value ([2]; 0.1 mg/L, checked after 4 days) was 60%, the “mortality of mite eggs (%)” value ([2]; 0.5 mg/L, checked after 4 days) was 60% and the “mortality of mite eggs (%)” value ([2]; 10 mg/L, checked after 4 days) was 100% and 95%. The LC50 ([2]; Tetranychus cinnabarinus, 96 h, read-out: LC50 (against mite eggs), mite eggs, from regression y = ax + b) was 0.128 µg/mL, the mortality at 0.01 µg/mL ([2]; Tetranychus cinnabarinus, 96 h, read-out: mortality of mite eggs (%), 0.01 mg/L, checked after 4 days) was 30% and the mortality at 0.05 µg/mL ([2]; Tetranychus cinnabarinus, 96 h, read-out: mortality of mite eggs (%), 0.05 mg/L, checked after 4 days) was 30%. For the same molecule, the mortality at 0.5 µg/mL [2, 3] was 80%, the mortality at 1 µg/mL [2, 3] was 70% and the mortality at 10 µg/mL [2, 3] was 90%. The mortality at 100 µg/mL [2, 3] was 100% and the mortality at 200 µg/mL [2, 3] was 100%.
